Experimental findings from article PMC12040169 (PLOS Biology, 2025) are described below.

Molecules are shown by their SMILES.

In general, viability refers to a read-out of living cells in per cent, often relative to untreated cells.

The nature of the series: in vitro. The settings on record: human, hela cells, % viability.
For `CCOc1ccc(CSC2=NCCN2)cc1Cl` [CBK027449C], the viability at 28.5 h, 10 µM amounted to 92.4%. Consider `COc1nc(NCc2ccco2)nc(OC)n1` [CBK027479], for which the viability at 28.5 h, 10 µM stood at 86.4%.

Consider `CN(CCOC(=O)c1cccs1)C(C)(C)C` [CBK027559C], for which the viability at 28.5 h, 10 µM is 88.6%. `O=C(Nc1ncccn1)C1CCCCC1` [CBK027567]: the viability at 28.5 h, 10 µM is 98.3%.

As for `O=C(NCCO)Nc1ccc2nccnc2c1` [CBK027577], the viability at 28.5 h, 10 µM stood at 71.5%. Consider `CC1(C)CC(=O)C=C(NCC2CCNCC2)C1` [CBK027580], for which the viability at 28.5 h, 10 µM is 87.9%. Under `Cc1cc(=O)n(C)c(=O)n1CCCN1CCCCC1` [CBK027584] stands 115%.

In the case of `CCCCSc1nnc2nc(C)cc(C)n12` [CBK027588], the viability at 28.5 h, 10 µM came to 98.2%. On to `Fc1ccc(-n2cnnn2)cc1` [CBK027592], for which the viability at 28.5 h, 10 µM was found to be 110%. Under `O=C(Nn1cnnc1)c1ccccc1F` [CBK027603] stands 106%; under `Cn1c(=O)c2[nH]c(N3CCCCC3)nc2n(C)c1=O` [CBK027630], 86.1%. Under `OCCCNCC(O)CN1c2ccccc2Sc2ccccc21` (centres unmarked) [CBK027632G] stands 98.4%.

Consider `[O-][S+]1c2ccccc2Oc2ccccc21` [CBK027634], for which the viability at 28.5 h, 10 µM worked out at 94.7%. The result for `CCOC(=O)c1c(-n2cnnn2)sc(C)c1C` [CBK027660] reads 93.6%. As to `Clc1cccc(-n2cnnn2)c1Cl` [CBK027665], the viability at 28.5 h, 10 µM was determined as 77.7%.

For `CC(C)Nc1nc(Cl)nc(Nc2ccc(I)cc2)n1` [CBK027685], the viability at 28.5 h, 10 µM was determined as 97.6%. The result for `Nc1nonc1OCCCCOc1nonc1N` [CBK027716] reads 110%; that for `O=c1[nH]c(=O)c2c3c(sc2[nH]1)CCCC3` [CBK027724], 67.6%.

In the case of `CCOC(=O)c1[nH]c(=O)[nH]c1CSc1ccccn1` [CBK027725], the viability at 28.5 h, 10 µM turned out to be 94%.

Turning to `Cc1nnc2nc(-c3ccc(Cl)cc3Cl)[nH]n12` [CBK027731], the viability at 28.5 h, 10 µM was 88.1%. `CC(C)Nc1nc(NC(C)C)nc(N(C)C(N)=O)n1` [CBK027732]: the viability at 28.5 h, 10 µM came to 90.2%. Take `CCNc1nc(C#N)nc(Nc2ccccc2)n1` [CBK027733]: the viability at 28.5 h, 10 µM came to 86.1%.

Consider `c1ccc(CSc2nc3ccccc3s2)nc1` [CBK027737], for which the viability at 28.5 h, 10 µM is 76.2%. The result for `COC(=O)NC(O)C(=O)c1cccs1` (centres unmarked) [CBK027755] reads 93.8%; that for `COC(=O)NC(O)C(=O)c1ccco1` (centres unmarked) [CBK027757], 94.7%; that for `O=c1[nH]nc(SCc2ccccc2Cl)c(=S)[nH]1` [CBK027795], 117%. As to `Cc1cc(=O)n2c(c1C#N)SCC2` [CBK027807], the viability at 28.5 h, 10 µM is 102%.

Take `COCC(C)NCc1ccccc1C` (centres unmarked) [CBK027852]: the viability at 28.5 h, 10 µM came out at 115%. Turning to `CNCc1cc(Br)ccc1OC` [CBK027857], the viability at 28.5 h, 10 µM turned out to be 113%.

As to `O=C(c1cc[nH]n1)N1CCOCC1` [CBK027868], the viability at 28.5 h, 10 µM worked out at 89.2%. As to `CCOc1cc(/C=N/Nc2nncn2N)cc(I)c1O` [CBK027879], the viability at 28.5 h, 10 µM worked out at 93.6%. Turning to `COC(=O)N/N=C(\C)c1ccc(Br)s1` [CBK027886], the viability at 28.5 h, 10 µM is 103%.

On to `COc1ccc(CCC(=O)Nc2nnc[nH]2)cc1` [CBK027896], for which the viability at 28.5 h, 10 µM came to 101%. The result for `COc1ccc(-c2nc(=S)c3c(n2CCCO)CCCC3)cc1` [CBK027898] reads 88.7%; that for `Cc1nc2ccccc2c(O)c1CN1CCN(C)CC1` [CBK027922], 119%; that for `NC(=O)c1c(NC(=O)Cn2cnc([N+](=O)[O-])n2)sc2c1CCCC2` [CBK027935], 98.6%. `O=C(Nc1nn[nH]n1)C1CCCCC1` [CBK027955]: the viability at 28.5 h, 10 µM was determined as 112%. As for `O=c1nc(O)c2ccccc2s1` [CBK027968], the viability at 28.5 h, 10 µM turned out to be 94.9%. As to `CCOc1ccc(/C=C2\SC(=O)NC2=S)cc1` [CBK027996], the viability at 28.5 h, 10 µM is 90.9%. Consider `CCCc1nnc(SCC(=O)Nc2cccc(C(F)(F)F)c2)n1N` [CBK028004], for which the viability at 28.5 h, 10 µM was 104%. Under `CC(C)C(c1nnnn1Cc1ccccc1)N1CCOCC1` (centres unmarked) [CBK028054] stands 117%. Under `Cc1ccc(S(=O)(=O)N(CCC#N)CCN2CCCC2)cc1` [CBK028055] stands 119%; under `COc1cccc(CCNCC(O)COc2ncnc3ccccc23)c1` (centres unmarked) [CBK028127T], 93.1%. Consider `COc1ccc([C@@]23CCC(NC(=S)NCc4ccccc4)C[C@@H]2N(Cc2ccccc2)CC3)cc1` (some centres unmarked) [CBK028140], for which the viability at 28.5 h, 10 µM turned out to be 88%. On to `C#CCn1nnc2ccccc21` [CBK028164], for which the viability at 28.5 h, 10 µM turned out to be 104%. Under `O=S1(=O)NC=Nc2ccccc21` [CBK028171] stands 112%; under `O=C(NC(=S)Nn1cnnc1)c1ccccc1` [CBK028188], 125%; under `FC(F)(F)c1nc2ccccc2[nH]1` [CBK028224], 84.5%. The result for `C[S+]([O-])c1nc2ccccc2s1` (centres unmarked) [CBK028233] reads 93.5%; that for `O=C(Nc1cccc(N2CCNCC2)c1)c1ccccc1` [CBK028255T], 114%. Turning to `O=C(CCCOc1ccccc1)Nc1cccnc1N1CCNCC1` [CBK028258T], the viability at 28.5 h, 10 µM amounted to 97.3%.

With `O=C(CCS(=O)(=O)c1ccccc1)Nc1cccnc1N1CCNCC1` [CBK028262T], the viability at 28.5 h, 10 µM was determined as 103%. On to `CN(CC(=O)Nc1cccnc1N1CCNCC1)C(=O)c1ccccc1` [CBK028264T], for which the viability at 28.5 h, 10 µM worked out at 95.8%.

As for `O=C(Nc1ccc(N2CCNCC2)nc1)C1(c2ccccc2)CCCCC1` [CBK028269T], the viability at 28.5 h, 10 µM worked out at 97.8%. As to `O=C(CCCOc1ccccc1)Nc1ccc(N2CCNCC2)nc1` [CBK028270T], the viability at 28.5 h, 10 µM came out at 98.2%. Consider `O=C(COc1ccccc1)Nc1cccc(N2CCNCC2)c1` [CBK028271T], for which the viability at 28.5 h, 10 µM amounted to 100%. In the case of `COc1ccc(CCCC(=O)Nc2ccc(N3CCNCC3)nc2)cc1OC` [CBK028272T], the viability at 28.5 h, 10 µM turned out to be 82.4%. The result for `O=C(Nc1ccc(N2CCNCC2)nc1)c1ccccc1` [CBK028277T] reads 114%. Under `O=C(CCC(=O)c1ccccc1)Nc1ccccc1N1CCNCC1` [CBK028284T] stands 92.9%. The result for `CN(CC(=O)Nc1ccccc1N1CCNCC1)C(=O)c1ccccc1` [CBK028287T] reads 99.3%; that for `O=C(NCc1ccccc1OC1CCNC1)c1ccccc1` (centres unmarked) [CBK028301T], 114%. As for `C[C@H]1CC[C@H](C(=O)N2CCC[C@H]2C(=O)O)CC1` [CBK028320], the viability at 28.5 h, 10 µM came out at 81.9%. With `Cc1ccc2c(c1)CCCN2C(=O)c1csc2c(C(F)(F)F)cc(N3CCOCC3)nc12` [CBK028367], the viability at 28.5 h, 10 µM is 116%.

For `COc1ccc(CCCC(=O)Nc2cc3ccccc3c(N3CCNCC3)n2)cc1OC` [CBK028417T], the viability at 28.5 h, 10 µM worked out at 90.3%.

Consider `O=C(CCC(=O)c1ccccc1)Nc1cc2ccccc2c(N2CCNCC2)n1` [CBK028418T], for which the viability at 28.5 h, 10 µM worked out at 106%.
